Experimental data from ChEMBL document CHEMBL5096171, “Synthesis and Biological Evaluation of PSMA Ligands with Aromatic Residues and Fluorescent Conjugates Based on Them” (J Med Chem, 2021).
pKi: −log10 of the molar value. In brackets after ≈: the same amount, converted by molar mass.

Legend:
[1] = Drug uptake in human LNCaP cells assessed as fold decrease in drug accumulation incubated for 1 hr in presence of (3S,7S,25S,28S)-33-Azido-25-benzyl-12-(3-chlorobenzyl)-28-(4-hydroxybenzyl)-5,13,20,23,26,29-hexaoxo-4,6,12,19,24,27,30-heptaazatritriacontane-1,3,7-tricarboxylic acid by flow cytometry; type: ADME, cell-based
[2] = Drug uptake in bloodstream of Balb/c nude mouse xenografted with human 22Rv1 cells at 0.449 mg/kg, IT administered as single dose measured after 24 hrs; type: ADME, organism-based, Blood, CWR22R; conditions: in vivo, other
[3] = Drug localisation in human LNCaP cells assessed as increase in fluorescent signal at 100 nM incubated for 2 hrs by Hoechst 33342 staining based fluorescence microscopy; type: ADME, cell-based; conditions: 0.1 µM
[4] = Drug uptake in human 22Rv1 cells assessed as decrease in drug accumulation incubated for 1 hr in presence of (3S,7S,25S,28S)-33-Azido-25-benzyl-12-(3-chlorobenzyl)-28-(4-hydroxybenzyl)-5,13,20,23,26,29-hexaoxo-4,6,12,19,24,27,30-heptaazatritriacontane-1,3,7-tricarboxylic acid by flow cytometry; type: ADME, cell-based; conditions: cwr22r
[5] = molecular target: T1, Glutamate carboxypeptidase 2 (Homo sapiens, UniProt Q04609); test: Inhibition of PMSA in human LNCaP cells assessed as increase in fluorescent signal upto 100 nM incubated for 1 hr by flow cytometry (reference value: 2.11%); type: cell-based
Target sequence in this assay (Q04609 whole entry, looked up): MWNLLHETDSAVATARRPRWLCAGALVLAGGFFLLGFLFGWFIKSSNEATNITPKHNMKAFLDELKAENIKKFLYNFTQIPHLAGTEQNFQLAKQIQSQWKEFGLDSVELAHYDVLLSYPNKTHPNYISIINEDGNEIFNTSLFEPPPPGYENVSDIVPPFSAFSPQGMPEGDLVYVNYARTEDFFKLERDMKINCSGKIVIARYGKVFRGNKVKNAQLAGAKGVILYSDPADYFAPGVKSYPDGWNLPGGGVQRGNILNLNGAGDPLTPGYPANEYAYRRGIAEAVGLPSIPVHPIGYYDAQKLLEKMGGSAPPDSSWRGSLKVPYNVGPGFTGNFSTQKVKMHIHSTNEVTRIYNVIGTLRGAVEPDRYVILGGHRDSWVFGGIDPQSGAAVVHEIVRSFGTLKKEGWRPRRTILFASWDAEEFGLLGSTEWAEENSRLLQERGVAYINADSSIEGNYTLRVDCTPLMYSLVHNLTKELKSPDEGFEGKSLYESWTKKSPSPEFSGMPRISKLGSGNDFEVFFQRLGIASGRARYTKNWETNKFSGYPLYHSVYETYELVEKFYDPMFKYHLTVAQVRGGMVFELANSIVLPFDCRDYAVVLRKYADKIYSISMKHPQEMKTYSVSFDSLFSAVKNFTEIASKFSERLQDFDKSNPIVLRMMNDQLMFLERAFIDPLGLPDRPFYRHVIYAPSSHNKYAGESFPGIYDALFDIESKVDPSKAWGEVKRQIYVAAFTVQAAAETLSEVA

PC-3 = test: Cytotoxicity against human PC-3 cells assessed as reduction in cell viability incubated for 5 days by MTT assay; type: functional; conditions: PC-3, 120 h, time 5 day
[6] = Drug excretion in Balb/c nude mouse xenografted with human 22Rv1 cells assessed as non-specifically bound drug at 0.449 mg/kg, IT administered as single dose measured after 24 hrs; type: ADME, organism-based, CWR22R; conditions: in vivo, other
[7] = Water solubility of the compound; type: physicochemical
[8] = molecular target: T1, Glutamate carboxypeptidase 2; test: Inhibition of PSMA derived from human LNCaP cell lysate assessed as inhibition of NAAG hydrolysis incubated for 2 hrs in presence of NAAG by Amplex Red assay; type: subcellular
Target sequence in this assay (Q04609 whole entry): as the sequence (Q04609 whole entry, looked up) above

[9] = Drug excretion in […] at 0.449 mg/kg, IT administered as single dose measured after 24 hrs; type: ADME, organism-based, CWR22R; conditions: in vivo, other
[10] = Drug uptake in human PC-3 cells xenografted in Balb/c nude mouse assessed as amount of fluorescence intensity at 0.449 mg/kg, IT administered as single dose measured after 24 hrs by IVIS Spectrum CT analysis; type: ADME, organism-based; conditions: in vivo, other
[11] = Drug uptake in human PC-3 cells assessed as decrease in drug accumulation incubated for 1 hr in presence of (3S,7S,25S,28S)-33-Azido-25-benzyl-12-(3-chlorobenzyl)-28-(4-hydroxybenzyl)-5,13,20,23,26,29-hexaoxo-4,6,12,19,24,27,30-heptaazatritriacontane-1,3,7-tricarboxylic acid by flow cytometry; type: ADME, cell-based; conditions: pc-3, 1 h
[12] = Drug uptake in skin capillary of Balb/c nude mouse xenografted with human 22Rv1 cells at 0.449 mg/kg, IT administered as single dose measured after 24 hrs; type: ADME, organism-based, Skin of body, CWR22R; conditions: in vivo, other
[13] = molecular target: T1, Glutamate carboxypeptidase 2; test: Inhibition of PMSA in human 22Rv1 cells assessed as increase in fluorescent signal upto 100 nM incubated for 1 hr by flow cytometry (reference value: 2.97%); type: cell-based
Target sequence in this assay (Q04609 whole entry, looked up): as above

LNCaP = test: Cytotoxicity against human LNCaP cells assessed as reduction in cell viability incubated for 5 days by MTT assay; type: functional; conditions: 120 h, time 5 day
[14] = n-Octanol/aqueous buffer distribution coefficient, log D of compound at pH 6.4 by shake flask method; type: physicochemical
[15] = molecular target: T1, Glutamate carboxypeptidase 2; test: Inhibition of PMSA in human PC-3 cells assessed as increase in fluorescent signal upto 100 nM incubated for 1 hr by flow cytometry (reference value: 1.14%); type: cell-based
Target sequence in this assay (Q04609 whole entry, looked up): as above

[16] = Drug uptake in human 22Rv1 cells xenografted in Balb/c nude mouse assessed as amount of fluorescence intensity at 0.449 mg/kg, IT administered as single dose measured after 24 hrs by IVIS Spectrum CT analysis; type: ADME, organism-based, CWR22R; conditions: in vivo, other
[17] = Acute toxicity in 2 hrs fasted ICR mouse assessed as maximum tolerated dose administered intravenously measured after 14 days; conditions: in vivo, route iv
[18] = Volume of distribution in Wistar Albino rat by HPLC analysis; type: ADME; conditions: in vivo
[19] = AUC (0 to infinity) in Wistar Albino rat by HPLC analysis; type: ADME; design: time infinity; conditions: in vivo
[20] = Acute toxicity in 10 to 12 hrs fasted Wistar rat assessed as maximum tolerated dose administered intravenously measured after 14 days; conditions: in vivo, route iv, time 14 day
[21] = AUC (0 to t) in Soviet Chinchilla rabbit by HPLC analysis; type: ADME, Oryctolagus cuniculus; conditions: in vivo
[22] = Chronic toxicity in Soviet Chinchilla rabbit assessed as change in lung histology at 120 to 243 mg/kg, iv administered once every 3 weeks; type: organism-based, Oryctolagus cuniculus; conditions: in vivo, 504 h, dose 120-243 mg/kg
[23] = Acute toxicity in 10 to 12 hrs fasted Wistar rat assessed as change in body weight dynamics at 0.72 to 45 mg/kg, iv measured after 14 days; type: organism-based; conditions: in vivo, 336 h, dose 0.72-45 mg/kg, time 14 day
[24] = C0 in Soviet Chinchilla rabbit by HPLC analysis; type: ADME, Oryctolagus cuniculus; conditions: in vivo
[25] = Drug excretion in urine of Wistar Albino rat measured after 2 to 4 hrs; type: ADME; conditions: in vivo, time 2-4 hrs
[26] = Chronic toxicity in Soviet Chinchilla rabbit assessed as change in liver histology at 120 to 243 mg/kg, iv administered once every 3 weeks; type: organism-based, Oryctolagus cuniculus; conditions: in vivo, 504 h, dose 120-243 mg/kg
[27] = Half life in Soviet Chinchilla rabbit by HPLC analysis; type: ADME, Oryctolagus cuniculus; conditions: in vivo
[28] = Chronic toxicity in Soviet Chinchilla rabbit assessed as change in blood albumin content at 120 to 243 mg/kg, iv administered once every 3 weeks; type: organism-based, Oryctolagus cuniculus; conditions: in vivo, 504 h, dose 120-243 mg/kg
[29] = Chronic toxicity in Soviet Chinchilla rabbit assessed as signs of intoxication at 120 to 243 mg/kg, iv administered once every 3 weeks; type: organism-based, Oryctolagus cuniculus; conditions: in vivo, 504 h, dose 120-243 mg/kg
[30] = Acute toxicity in 10 to 12 hrs fasted Wistar rat assessed as increase in kidney damage at 45 mg/kg, iv measured after 14 days; type: organism-based; conditions: in vivo, 336 h, time 14 day
[31] = Half life in Wistar Albino rat by HPLC analysis; type: ADME; conditions: in vivo
[32] = Chronic toxicity in Soviet Chinchilla rabbit assessed as change in spleen histology at 120 to 243 mg/kg, iv administered once every 3 weeks; type: organism-based, Oryctolagus cuniculus; conditions: in vivo, 504 h, dose 120-243 mg/kg
[33] = C0 in Wistar Albino rat by HPLC analysis; type: ADME; conditions: in vivo
[34] = Acute toxicity in 2 hrs fasted ICR mouse assessed as toxic effect at 1.1 mg/kg, iv measured after 14 days; type: organism-based; conditions: in vivo, 336 h, time 14 day
[35] = Elimination rate constant in Soviet Chinchilla rabbit by HPLC analysis; type: ADME, Oryctolagus cuniculus
[36] = Volume of distribution in Soviet Chinchilla rabbit by HPLC analysis; type: ADME, Oryctolagus cuniculus; conditions: in vivo
[37] = Clearance in Wistar Albino rat by HPLC analysis; type: ADME; conditions: in vivo
[38] = Acute toxicity in 10 to 12 hrs fasted Wistar rat assessed as toxic effect at 0.72 to 45 mg/kg, iv measured after 14 days; type: organism-based; conditions: in vivo, 336 h, dose 0.72-45 mg/kg, time 14 day
[39] = Drug distribution in blood plasma of Wistar Albino rat measured after 2 to 4 hrs; type: ADME, cell-free; conditions: time 2-4 hrs
[40] = Elimination rate constant in Wistar Albino rat by HPLC analysis; type: ADME
[41] = AUC (0 to infinity) in Soviet Chinchilla rabbit by HPLC analysis; type: ADME, Oryctolagus cuniculus; design: time infinity; conditions: in vivo
[42] = Acute toxicity in 2 hrs fasted ICR mouse assessed as reversible decrease in body weight dynamics at 89.7 mg/kg, iv measured after 14 days; type: organism-based; conditions: in vivo, 336 h, time 14 day
[43] = Drug distribution in kidney of Wistar Albino rat measured after 2 to 4 hrs; type: ADME, tissue-based; conditions: in vivo, time 2-4 hrs
[44] = Drug distribution in small intestine of Wistar Albino rat measured after 2 to 4 hrs; type: ADME, tissue-based; conditions: in vivo, time 2-4 hrs
[45] = MRT (0 to t) in Soviet Chinchilla rabbit by HPLC analysis; type: ADME, Oryctolagus cuniculus; conditions: in vivo
[46] = AUC (0 to t) in Wistar Albino rat by HPLC analysis; type: ADME; conditions: in vivo
[47] = Drug uptake in bloodstream of Balb/c nude mouse xenografted with human 22Rv1 cells at 0.449 mg/kg, IT administered as single dose measured upto 8 hrs; type: ADME, organism-based, Blood, CWR22R; conditions: in vivo, other
[48] = Chronic toxicity in Soviet Chinchilla rabbit assessed as change in brain histology at 120 to 243 mg/kg, iv administered once every 3 weeks; type: organism-based, Oryctolagus cuniculus; conditions: in vivo, 504 h, dose 120-243 mg/kg
[49] = MRT (0 to t) in Wistar Albino rat by HPLC analysis; type: ADME; conditions: in vivo
[50] = Chronic toxicity in Soviet Chinchilla rabbit assessed as change in kidney histology at 120 to 243 mg/kg, iv administered once every 3 weeks; type: organism-based, Oryctolagus cuniculus; conditions: in vivo, 504 h, dose 120-243 mg/kg
[51] = Acute toxicity in 2 hrs fasted ICR mouse assessed as body weight reduction at 89.7 mg/kg, iv measured for 5 to 10 days; type: organism-based; conditions: in vivo
[52] = Clearance in Soviet Chinchilla rabbit by HPLC analysis; type: ADME, Oryctolagus cuniculus; conditions: in vivo
[53] = Drug distribution in liver of Wistar Albino rat measured after 2 to 4 hrs; type: ADME, tissue-based; conditions: in vivo, time 2-4 hrs
[54] = Chronic toxicity in Soviet Chinchilla rabbit assessed as change in heart histology at 120 to 243 mg/kg, iv administered once every 3 weeks; type: organism-based, Oryctolagus cuniculus; conditions: in vivo, 504 h, dose 120-243 mg/kg
[55] = Acute toxicity in 2 hrs fasted ICR mouse assessed as restoration of mass gain rate at 89.7 mg/kg, iv measured on day 14; type: organism-based; conditions: in vivo, 336 h, time 14 day

CN1/C(=C/C=C/C=C/C2=[N+](CCCCCC(=O)NCc3cn(CCCNC(=O)[C@H](Cc4ccc(O)cc4)NC(=O)[C@H](Cc4ccccc4)NC(=O)CCC(=O)NCCCCCC(=O)N(CCCC[C@H](NC(=O)N[C@@H](CCC(=O)O)C(=O)O)C(=O)O)Cc4cccc(Cl)c4)nn3)c3ccc(S(=O)(=O)[O-])cc3C2(C)C)C(C)(C)c2cc(S(=O)(=O)O)ccc21
fold change (FC) [1]: 4.1 | Drug uptake [2]: Active | Drug uptake [3]: Active | Drug uptake [4]: Active | inhibition [5]: 95% | CC50 (PC-3): > 100 µM | Drug excretion [6]: Active | solubility [7]: 7000 µg/mL (≈ 4050 µM) | pKi [8]: 8.59 | Drug excretion [9]: Active | Activity [10]: 1.5 10^9(p/s)(uW/cm^2) | Drug uptake [11]: Active | Drug uptake [12]: Active | inhibition [13]: 35.3% | CC50 (LNCaP): > 100 µM | logD [14]: -1.2 | inhibition [15]: 2.79% | Activity [16]: 1.5 10^9(p/s)(uW/cm^2)

CN1/C(=C/C=C2C=C(/C=C/C3=[N+](CCCCCC(=O)NCc4cn(CCCNC(=O)[C@H](Cc5ccc(O)cc5)NC(=O)[C@H](Cc5ccccc5)NC(=O)CCC(=O)NCCCCCC(=O)N(CCCC[C@H](NC(=O)N[C@@H](CCC(=O)O)C(=O)O)C(=O)O)Cc5cccc(Cl)c5)nn4)c4ccc(S(=O)(=O)[O-])cc4C3(C)C)CCC/2)C(C)(C)c2cc(S(=O)(=O)O)ccc21
MTD at 14 h [17]: 89.7 mg/kg | Vd [18]: 0.954 L/kg | AUC(0-inf) [19]: 76000 ng·h/mL | MTD at 336 h [20]: 45 mg/kg | AUC(0-t) [21]: 70000 ng·h/mL | Activity [22]: Non-Toxic | Activity [23]: Non-Toxic | C0 [24]: 869 µg/mL | Drug excretion [25]: Active | Activity [26]: Non-Toxic | half-life [27]: 1.39 h | Activity [28]: Toxic | Activity [29]: Non-Toxic | Activity [30]: Toxic | half-life [31]: 1.78 h | Activity [32]: Non-Toxic | C0 [33]: 342 µg/mL | CC50 (PC-3): 18.7 µM | Activity [34]: Non-Toxic | k el [35]: 0.000181 s⁻¹ | Vd [36]: 1.49 L/kg | clearance [37]: 8.22 mL/min/kg | Activity [38]: Non-Toxic | Drug uptake [39]: Active | k el [40]: 0.000179 s⁻¹ | solubility [7]: 560 µg/mL (≈ 312 µM) | AUC(0-inf) [41]: 82000 ng·h/mL | pKi [8]: 7.74 | Activity [42]: Toxic | Drug uptake [43]: Active | Drug uptake [44]: Active | MRT last [45]: 0.18 h | AUC(0-t) [46]: 53000 ng·h/mL | Drug uptake [9]: Active | Drug uptake [47]: Active | Activity [10]: 1.9 10^9(p/s)(uW/cm^2) | Activity [48]: Non-Toxic | MRT last [49]: 0.719 h | Activity [50]: Non-Toxic | Activity [51]: Toxic | CC50 (LNCaP): 12.2 µM | clearance [52]: 14 mL/min/kg | logD [14]: -0.48 | Drug uptake [53]: Active | Activity [54]: Non-Toxic | Activity [55]: Non-Toxic | Activity [16]: 1.9 10^9(p/s)(uW/cm^2)
